20 compounds from PubChem BioAssay (NCI) can be followed below.

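Method: 48-hour compound exposure of cells in 96-well plates, five concentrations, linear interpolation of endpoints. GI50 marks 50% less growth. The concentration for full growth arrest is given as TGI.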

Holding throughout (test): NCI-60 cell line screen, 48 h
Assay [1] has as its system MALME-3M melanoma.
For assay [2], the system named is RXF 393 renal.
Assay [3] relates to KM12 colon.
Assay [4] relates to SR leukemia.
In assay [5] the test system is CCRF-CEM leukemia.
Assay [6] relates to SW-620 colon.
The test system of assay [7] is SF-539 CNS.
For assay [8], the system named is MCF7 breast.
Assay [9] deals with K-562 leukemia.
Assay [10] concerns HOP-62 NSCLC.

For the compound `N#Cc1c(-c2ccc(F)cc2)nc(N/N=C/c2c[nH]c3ccccc23)nc1N1CCOCC1`, the GI50 in assay [1] is 2.75 µM; in assay [2], 1.19 µM; in assay [3], 4.96 µM; in [4], 0.215 µM; in assay [5] it was 3.43 µM; in assay [6] it was 1.58 µM. The GI50 in assay [7] is 3.68 µM; in [8], 4.56 µM; in assay [9] it was 1.79 µM. Besides, the TGI in assay [1] was 4.76 µM; in assay [2], 3.97 µM; in assay [3] it was 68.9 µM; in [4] it was 24 µM; in assay [5], > 100 µM; in [6], 4.69 µM. Further, the values for the TGI in assay [7], in assay [8] and in assay [9] were 23 µM, 57.4 µM and 14.2 µM, respectively.
For the compound `CCC(C)C(=O)OC1CC2(C)C(c3ccoc3)OC(=O)CC23OC2(C)OC34C(OC(=O)C(C)C)C3(O)C(OC(=O)C5(C)OC5C)C5(C)CC3(O)C(C)(C5CC(=O)OC)C14O2` (stereo not given), the TGI was > 100 µM in assay [1]; > 100 µM in [3]; 95 µM in [4]; 74.1 µM in [5]; > 100 µM in assay [6]; 79.6 µM in [7]. Also, the TGI was 66.1 µM in assay [8] and > 100 µM in assay [9].
On to `O=C(Cc1ccc([N+](=O)[O-])cc1)OCC#CCOC(=O)Cc1ccc([N+](=O)[O-])cc1`, for which the TGI in [1], in assay [2], in assay [3], in [4], in [5] and in assay [6] was > 10 µM throughout. Further, the TGI in [7], in [8] and in assay [9] was > 10 µM each time.
For the compound `CCC(=O)Oc1c2ccsc2c(OC(=O)CC)c2ccsc12`, the TGI in [1] is 0.14 µM; in assay [2], 2.69 µM; in assay [3], 3.34 µM; in assay [4], 0.806 µM; in assay [5], 9.52 µM; in [6], 2.33 µM. Also, the TGI in assay [7] was 0.472 µM; in assay [10], 2.95 µM; in assay [8] it was 3.43 µM.
On to `COc1ccc2cc(NC(=O)N/N=C\c3ccc(Cl)cc3)ccc2c1`, for which the TGI in assay [1], in assay [3], in assay [4], in [5], in assay [6] and in assay [7] was > 100 µM throughout. Also, the TGI in [10], in assay [8] and in [9] was > 100 µM each time.
With `NC1CNC(=O)c2c(Cl)sc(Cl)c21` (stereo not given), the TGI in assay [1], in [2], in assay [3], in [4], in assay [6] and in assay [7] was > 100 µM in each case. Also, the TGI in assay [10], in assay [8] and in assay [9] was > 100 µM throughout.
For `CN(C)S(=O)(=O)Nc1nnc(S(N)(=O)=O)s1`, the TGI in assay [1], in assay [2], in assay [3], in assay [4], in assay [6] and in [7] was > 100 µM throughout. Moreover, the TGI in [10], in assay [8] and in [9] was > 100 µM each time.
Regarding `Brc1cccc(N=NN2CCCC2)c1`, the TGI in assay [2], in assay [3], in assay [4], in assay [5], in [6] and in assay [7] was > 100 µM throughout. Further, the TGI in assay [10], in [8] and in assay [9] was > 100 µM throughout.
Consider `CC(=O)OCC(OC(C)=O)C1C[C@H]2O[C@@H]3[C@H](C[C@H]2O1)O[C@@]1(C[C@@H]3C)C[C@H](C)[C@@H]2O[C@]3(C[C@@H]2O1)C[C@H]1O[C@H]2[C@H](C)[C@H]4OC(=O)CC5CC[C@H]6OC7[C@H]8O[C@]9(CC[C@H]%10CC(O)(CO)[C@H](CC[C@H]%11C[C@@H](C)C(O)(CO)C(C[C@@H]4O[C@H]2C[C@H]1O3)O%11)O%10)CC8O[C@@H]7[C@@H](O9)[C@H]6O5` (stereo not given in full), for which the TGI in [1] was > 1 µM; in [3], > 0.333 µM; in [4] it was > 1 µM; in [5] it was > 1 µM; in assay [6] it was > 1 µM; in assay [10], > 1 µM. In addition, the TGI in assay [8] and in assay [9] was > 1 µM throughout.
Take `CC1(C)OCC2OC3([C@H]4OC(C)(C)O[C@@H]4CO)OC(C)(C)OC3C2O1` (stereo not given in full): the TGI in assay [2], in assay [3], in assay [4], in assay [5], in assay [6] and in [7] was > 100 µM each time. Further, the TGI in assay [10], in [8] and in assay [9] was > 100 µM in each case.
`O=c1oc2cc(O)ccc2c(O)c1C(c1ccc(C(c2c(O)c3ccc(O)cc3oc2=O)c2c(O)c3ccc(O)cc3oc2=O)cc1)c1c(O)c2ccc(O)cc2oc1=O`: the TGI in [1], in assay [2], in [4], in [5], in [6] and in assay [7] was > 100 µM in each case. Moreover, the TGI in assay [10], in [8] and in assay [9] was > 100 µM throughout.
Turning to `FC(F)(F)c1ccc2nc3n(c2c1)C(c1c(Cl)cccc1Cl)SC3` (stereo not given), the TGI amounted to 29.9 µM in assay [1]; 30.9 µM in [2]; 28.3 µM in assay [3]; 21.4 µM in assay [4]; 34.9 µM in [6]; 33.1 µM in assay [7]. The values for the TGI in [10] and in [8] were 29.8 µM and 37.9 µM, respectively.
As for `NC(=O)C(=CNC(=S)c1ccncc1)C(N)=O`, the TGI in assay [2], in assay [3], in assay [4], in assay [5], in assay [6] and in [7] was > 100 µM in each case. For the same compound, the TGI in assay [10], in [8] and in assay [9] was > 100 µM in each case.
As to `Cc1cn(C(C)OCCN2C(=O)c3ccccc3C2=O)c(=O)[nH]c1=O` (stereo not given), the TGI in assay [2], in assay [3], in assay [4], in assay [5], in assay [6] and in [7] was > 100 µM in each case. In addition, the TGI in assay [10], in [8] and in [9] was > 100 µM in each case.
For `COc1cc2c(/C=C3/C(=O)Nc4ccccc43)c(Cl)[nH]c2cc1C`, the TGI in assay [2] was 24 µM; in assay [3], 0.232 µM; in assay [4] it was 10.1 µM; in assay [5] it was > 67.8 µM; in [6], 59 µM; in assay [7], 0.225 µM. Besides, the TGI in [10] is 26.4 µM; in assay [8] it was 16.6 µM; in assay [9] it was 24 µM.
`NC(=O)c1cc2ccccc2o/c1=N/O`: the TGI in [2], in assay [3], in assay [4], in assay [5], in [6] and in [7] was > 100 µM in each case. Also, the TGI in [10], in assay [8] and in [9] was > 100 µM throughout.
As to `CCN1CCC(O)(C(C(=O)O)c2ccccc2)CC1` (stereo not given), the TGI in [1], in assay [2], in assay [3], in assay [4], in assay [5] and in assay [6] was > 100 µM in each case. In addition, the TGI in assay [10], in assay [8] and in assay [9] was > 100 µM throughout.
As for `COC(=O)c1ccc(C=Nc2ccc(S(N)(=O)=O)cc2)cc1`, the TGI in assay [1] was > 100 µM; in assay [2] it was > 100 µM; in assay [3], > 100 µM; in assay [4], > 100 µM; in assay [5], 83 µM; in assay [7], > 100 µM. Besides, the TGI in assay [10] and in assay [8] was > 100 µM each time.
As to `COC(=O)C1=Nc2c(C)nn(-c3ccccc3)c2N=C(c2ccc([N+](=O)[O-])cc2)C1`, the TGI in [1], in [3], in assay [4], in [5], in assay [6] and in assay [7] was > 10 µM each time. Further, the TGI in [10], in [8] and in assay [9] was > 10 µM each time.
Consider `Brc1cc2nn(-c3ccccc3)nc2c2nonc12`, for which the TGI in assay [1], in assay [3], in assay [4], in assay [5], in assay [6] and in [7] was > 100 µM throughout. For the same compound, the TGI in assay [10], in [8] and in assay [9] was > 100 µM throughout.
